According to publication PMC5540273, “Progress towards a public chemogenomic set for protein kinases and a call for contributions” (PLoS ONE, 2017):

How the values were obtained:
Assay in all cases: KINOMEscan competition binding
JNK3 = JNK3 (Homo sapiens, UniProt P53779); details: read-out: %Inh JNK3
ALK = ALK (Homo sapiens, UniProt Q9UM73); details: read-out: %Inh ALK
CSNK1G2 = CSNK1G2 (Homo sapiens, UniProt P78368); details: read-out: %Inh CSNK1G2
CDC2L5 = CDC2L5 (Homo sapiens, UniProt Q14004); details: read-out: %Inh CDC2L5
Chain of CDC2L5 (Q14004 whole entry): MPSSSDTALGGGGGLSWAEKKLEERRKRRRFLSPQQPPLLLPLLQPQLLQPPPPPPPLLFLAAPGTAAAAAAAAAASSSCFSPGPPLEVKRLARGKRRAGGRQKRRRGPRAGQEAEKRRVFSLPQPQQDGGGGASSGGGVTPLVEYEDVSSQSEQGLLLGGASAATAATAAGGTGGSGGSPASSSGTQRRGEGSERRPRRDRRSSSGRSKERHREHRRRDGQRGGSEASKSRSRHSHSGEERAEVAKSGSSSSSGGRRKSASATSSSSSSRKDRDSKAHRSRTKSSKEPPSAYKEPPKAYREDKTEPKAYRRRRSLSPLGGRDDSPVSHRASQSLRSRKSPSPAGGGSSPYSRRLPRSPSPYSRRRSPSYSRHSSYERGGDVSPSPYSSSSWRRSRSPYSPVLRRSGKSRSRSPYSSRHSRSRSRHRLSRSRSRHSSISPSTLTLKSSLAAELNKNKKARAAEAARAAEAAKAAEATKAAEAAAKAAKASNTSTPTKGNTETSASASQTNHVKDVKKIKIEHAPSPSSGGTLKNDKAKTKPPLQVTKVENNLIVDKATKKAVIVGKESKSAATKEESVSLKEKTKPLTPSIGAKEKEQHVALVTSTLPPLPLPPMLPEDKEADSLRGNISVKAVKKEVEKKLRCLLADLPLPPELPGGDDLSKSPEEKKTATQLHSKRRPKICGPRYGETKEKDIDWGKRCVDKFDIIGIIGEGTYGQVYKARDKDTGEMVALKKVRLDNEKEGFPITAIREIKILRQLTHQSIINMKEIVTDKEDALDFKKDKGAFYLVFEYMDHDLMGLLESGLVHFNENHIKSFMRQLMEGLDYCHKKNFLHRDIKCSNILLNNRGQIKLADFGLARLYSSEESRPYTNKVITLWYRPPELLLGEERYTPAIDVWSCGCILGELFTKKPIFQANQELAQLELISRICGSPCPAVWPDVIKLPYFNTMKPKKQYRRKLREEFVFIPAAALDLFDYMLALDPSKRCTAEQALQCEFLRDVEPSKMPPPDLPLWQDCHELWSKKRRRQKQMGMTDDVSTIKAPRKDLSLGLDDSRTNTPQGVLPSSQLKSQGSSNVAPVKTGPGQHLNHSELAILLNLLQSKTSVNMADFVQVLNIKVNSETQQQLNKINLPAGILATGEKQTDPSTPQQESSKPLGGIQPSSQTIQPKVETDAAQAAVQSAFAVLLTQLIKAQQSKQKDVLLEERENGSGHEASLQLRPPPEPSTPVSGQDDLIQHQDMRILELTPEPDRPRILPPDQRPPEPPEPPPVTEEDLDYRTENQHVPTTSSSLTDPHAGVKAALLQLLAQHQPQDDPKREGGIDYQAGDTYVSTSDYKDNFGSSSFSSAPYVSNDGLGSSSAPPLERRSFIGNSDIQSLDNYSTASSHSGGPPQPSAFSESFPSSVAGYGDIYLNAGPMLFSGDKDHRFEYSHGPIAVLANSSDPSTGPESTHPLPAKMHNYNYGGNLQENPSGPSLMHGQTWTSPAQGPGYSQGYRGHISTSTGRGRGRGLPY

HCK = HCK (Homo sapiens, UniProt P08631); details: read-out: %Inh HCK
Chain of HCK (P08631 whole entry): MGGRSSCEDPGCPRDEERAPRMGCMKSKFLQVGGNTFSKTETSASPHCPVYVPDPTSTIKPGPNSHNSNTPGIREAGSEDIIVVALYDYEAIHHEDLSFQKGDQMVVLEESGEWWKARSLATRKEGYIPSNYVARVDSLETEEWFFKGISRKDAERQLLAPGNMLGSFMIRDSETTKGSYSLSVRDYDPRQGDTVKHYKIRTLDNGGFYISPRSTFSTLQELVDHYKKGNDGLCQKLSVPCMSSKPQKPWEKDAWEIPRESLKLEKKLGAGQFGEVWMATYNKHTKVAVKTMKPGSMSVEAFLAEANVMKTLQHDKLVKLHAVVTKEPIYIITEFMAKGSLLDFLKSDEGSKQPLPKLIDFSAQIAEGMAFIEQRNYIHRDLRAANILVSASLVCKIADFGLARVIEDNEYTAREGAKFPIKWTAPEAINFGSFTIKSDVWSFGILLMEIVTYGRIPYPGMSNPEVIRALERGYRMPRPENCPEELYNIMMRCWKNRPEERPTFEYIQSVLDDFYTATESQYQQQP

[1] = target: JAK3(JH1domain-catalytic) (Homo sapiens, UniProt P52333); details: read-out: %Inh JAK3(JH1domain-catalytic)
CDK11 = CDK11 (Homo sapiens, UniProt Q9BWU1); details: read-out: %Inh CDK11
Chain of CDK11 (Q9BWU1 whole entry): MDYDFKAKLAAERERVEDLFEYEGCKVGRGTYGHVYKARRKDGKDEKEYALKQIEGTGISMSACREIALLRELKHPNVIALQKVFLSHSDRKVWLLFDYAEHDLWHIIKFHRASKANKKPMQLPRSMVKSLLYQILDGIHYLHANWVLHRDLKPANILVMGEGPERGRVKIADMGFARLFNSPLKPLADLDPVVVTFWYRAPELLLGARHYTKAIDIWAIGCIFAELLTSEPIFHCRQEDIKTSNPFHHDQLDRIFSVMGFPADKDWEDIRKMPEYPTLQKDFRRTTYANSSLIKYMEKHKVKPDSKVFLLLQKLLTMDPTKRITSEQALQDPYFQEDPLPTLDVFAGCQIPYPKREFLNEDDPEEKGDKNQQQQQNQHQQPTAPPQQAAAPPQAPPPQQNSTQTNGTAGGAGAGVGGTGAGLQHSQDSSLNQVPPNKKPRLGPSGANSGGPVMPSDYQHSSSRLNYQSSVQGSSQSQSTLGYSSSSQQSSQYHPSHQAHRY

CDK8 = CDK8 (Homo sapiens, UniProt P49336); details: read-out: %Inh CDK8
Chain of CDK8 (P49336 whole entry): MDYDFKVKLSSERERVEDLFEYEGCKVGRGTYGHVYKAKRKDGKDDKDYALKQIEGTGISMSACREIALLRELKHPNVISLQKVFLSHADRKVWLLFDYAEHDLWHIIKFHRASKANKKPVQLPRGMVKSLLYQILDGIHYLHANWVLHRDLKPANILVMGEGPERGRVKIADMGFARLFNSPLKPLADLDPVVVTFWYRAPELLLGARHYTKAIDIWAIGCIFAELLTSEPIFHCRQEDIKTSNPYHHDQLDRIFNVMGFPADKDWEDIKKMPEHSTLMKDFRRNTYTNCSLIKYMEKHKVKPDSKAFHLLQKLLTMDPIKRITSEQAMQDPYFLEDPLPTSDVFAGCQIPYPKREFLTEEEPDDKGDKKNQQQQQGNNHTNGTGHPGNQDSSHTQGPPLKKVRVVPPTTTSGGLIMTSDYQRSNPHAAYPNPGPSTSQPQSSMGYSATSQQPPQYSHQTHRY

IKK-beta = target: T1, IKK-beta (Homo sapiens, UniProt O14920); details: read-out: %Inh IKK-beta
T1 sequence (O14920 1-756): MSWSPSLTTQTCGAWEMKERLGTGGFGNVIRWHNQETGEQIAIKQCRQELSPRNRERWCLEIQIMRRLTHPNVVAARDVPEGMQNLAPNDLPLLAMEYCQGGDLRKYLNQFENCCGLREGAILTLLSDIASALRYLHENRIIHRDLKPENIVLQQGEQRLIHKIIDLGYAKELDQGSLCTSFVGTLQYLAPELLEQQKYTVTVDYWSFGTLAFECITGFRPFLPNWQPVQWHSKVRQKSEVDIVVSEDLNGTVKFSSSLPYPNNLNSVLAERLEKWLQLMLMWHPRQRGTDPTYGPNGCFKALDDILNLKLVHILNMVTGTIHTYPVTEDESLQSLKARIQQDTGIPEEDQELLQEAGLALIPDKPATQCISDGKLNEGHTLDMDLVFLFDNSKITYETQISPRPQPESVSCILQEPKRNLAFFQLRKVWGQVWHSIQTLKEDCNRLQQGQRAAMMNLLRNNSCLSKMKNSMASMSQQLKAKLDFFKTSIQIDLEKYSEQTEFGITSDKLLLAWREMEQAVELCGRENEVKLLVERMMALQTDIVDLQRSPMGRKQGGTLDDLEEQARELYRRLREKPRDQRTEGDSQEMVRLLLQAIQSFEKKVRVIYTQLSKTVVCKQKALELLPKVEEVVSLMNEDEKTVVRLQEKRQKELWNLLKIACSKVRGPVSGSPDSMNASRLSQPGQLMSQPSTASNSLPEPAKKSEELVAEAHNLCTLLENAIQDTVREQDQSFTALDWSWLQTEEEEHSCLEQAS

MAP3K15 = target: T2, MAP3K15 (Homo sapiens, UniProt Q6ZN16); details: read-out: %Inh MAP3K15
T2 sequence (Q6ZN16 1-1313): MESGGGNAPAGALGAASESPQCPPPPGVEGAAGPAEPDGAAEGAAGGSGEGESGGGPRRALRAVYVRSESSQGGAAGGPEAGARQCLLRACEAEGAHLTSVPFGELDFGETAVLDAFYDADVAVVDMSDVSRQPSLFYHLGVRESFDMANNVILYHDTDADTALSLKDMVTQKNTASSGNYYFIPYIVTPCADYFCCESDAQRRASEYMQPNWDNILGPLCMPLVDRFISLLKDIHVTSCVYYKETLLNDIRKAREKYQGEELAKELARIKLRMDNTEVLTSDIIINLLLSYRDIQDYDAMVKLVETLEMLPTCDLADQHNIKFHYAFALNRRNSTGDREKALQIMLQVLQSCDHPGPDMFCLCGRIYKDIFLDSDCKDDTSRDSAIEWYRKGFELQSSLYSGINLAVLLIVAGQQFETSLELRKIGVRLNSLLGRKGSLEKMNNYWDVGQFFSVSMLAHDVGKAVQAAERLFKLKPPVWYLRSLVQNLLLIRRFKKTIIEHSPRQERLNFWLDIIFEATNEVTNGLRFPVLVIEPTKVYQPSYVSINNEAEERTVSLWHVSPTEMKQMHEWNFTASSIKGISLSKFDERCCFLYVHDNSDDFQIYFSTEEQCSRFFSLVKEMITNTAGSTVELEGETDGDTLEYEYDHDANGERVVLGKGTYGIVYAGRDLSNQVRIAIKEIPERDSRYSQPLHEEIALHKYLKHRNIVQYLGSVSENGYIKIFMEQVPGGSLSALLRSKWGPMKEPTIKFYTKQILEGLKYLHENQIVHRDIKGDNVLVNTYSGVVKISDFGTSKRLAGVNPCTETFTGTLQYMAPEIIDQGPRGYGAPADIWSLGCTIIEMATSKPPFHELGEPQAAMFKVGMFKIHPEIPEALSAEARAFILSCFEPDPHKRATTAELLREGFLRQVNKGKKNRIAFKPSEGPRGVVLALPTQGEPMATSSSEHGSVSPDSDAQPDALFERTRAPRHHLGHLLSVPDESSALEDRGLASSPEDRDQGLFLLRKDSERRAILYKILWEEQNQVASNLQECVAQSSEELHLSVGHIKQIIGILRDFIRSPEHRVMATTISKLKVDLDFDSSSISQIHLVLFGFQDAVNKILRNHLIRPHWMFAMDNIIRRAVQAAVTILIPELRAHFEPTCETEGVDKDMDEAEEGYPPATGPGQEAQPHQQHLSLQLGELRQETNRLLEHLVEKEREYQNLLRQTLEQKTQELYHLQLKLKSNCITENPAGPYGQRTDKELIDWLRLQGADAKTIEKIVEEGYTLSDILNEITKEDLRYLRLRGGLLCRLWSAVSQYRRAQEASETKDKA

ERBB2 = ERBB2 (Homo sapiens, UniProt P04626); details: read-out: %Inh ERBB2
ACVRL1 = ACVRL1 (Homo sapiens, UniProt P37023); details: read-out: %Inh ACVRL1
Chain of ACVRL1 (P37023 22-503): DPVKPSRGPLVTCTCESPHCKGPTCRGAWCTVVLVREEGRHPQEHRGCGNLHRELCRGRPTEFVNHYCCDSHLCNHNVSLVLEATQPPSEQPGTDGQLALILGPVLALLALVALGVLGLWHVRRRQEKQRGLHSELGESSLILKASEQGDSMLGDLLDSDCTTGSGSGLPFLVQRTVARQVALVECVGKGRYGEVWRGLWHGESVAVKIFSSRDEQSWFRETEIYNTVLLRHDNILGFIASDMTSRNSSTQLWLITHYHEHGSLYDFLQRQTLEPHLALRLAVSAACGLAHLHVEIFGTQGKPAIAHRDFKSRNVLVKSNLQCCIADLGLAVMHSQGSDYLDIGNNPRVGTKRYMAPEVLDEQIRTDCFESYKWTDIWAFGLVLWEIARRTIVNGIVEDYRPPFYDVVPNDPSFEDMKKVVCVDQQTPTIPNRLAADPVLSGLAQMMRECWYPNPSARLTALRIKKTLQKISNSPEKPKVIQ

LOK = LOK (Homo sapiens, UniProt O94804); details: read-out: %Inh LOK
Chain of LOK (O94804 whole entry): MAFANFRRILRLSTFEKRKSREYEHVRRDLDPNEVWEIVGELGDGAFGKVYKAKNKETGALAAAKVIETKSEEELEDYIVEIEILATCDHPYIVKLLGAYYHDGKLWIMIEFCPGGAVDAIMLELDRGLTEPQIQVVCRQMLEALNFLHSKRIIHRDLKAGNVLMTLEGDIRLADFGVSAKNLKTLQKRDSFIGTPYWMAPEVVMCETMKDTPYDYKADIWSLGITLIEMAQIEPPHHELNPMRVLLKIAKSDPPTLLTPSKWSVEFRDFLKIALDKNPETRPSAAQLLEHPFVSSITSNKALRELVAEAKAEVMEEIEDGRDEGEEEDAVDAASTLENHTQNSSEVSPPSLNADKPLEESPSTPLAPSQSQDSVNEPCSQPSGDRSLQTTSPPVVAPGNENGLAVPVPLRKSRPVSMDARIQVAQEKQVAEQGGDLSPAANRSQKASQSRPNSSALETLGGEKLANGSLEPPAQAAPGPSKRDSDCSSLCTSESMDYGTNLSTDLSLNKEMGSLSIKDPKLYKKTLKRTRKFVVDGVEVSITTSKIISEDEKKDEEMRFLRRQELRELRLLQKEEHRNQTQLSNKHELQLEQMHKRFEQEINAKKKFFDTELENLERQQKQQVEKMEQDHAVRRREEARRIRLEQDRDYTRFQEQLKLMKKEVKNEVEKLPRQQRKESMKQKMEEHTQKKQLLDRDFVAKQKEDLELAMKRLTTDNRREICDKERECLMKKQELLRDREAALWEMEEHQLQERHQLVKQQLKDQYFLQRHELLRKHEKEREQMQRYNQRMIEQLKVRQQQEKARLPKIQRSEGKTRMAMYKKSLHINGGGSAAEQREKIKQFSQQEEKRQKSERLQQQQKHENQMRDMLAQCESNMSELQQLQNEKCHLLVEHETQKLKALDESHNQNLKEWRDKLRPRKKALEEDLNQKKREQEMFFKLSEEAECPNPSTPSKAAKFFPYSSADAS

Chain of JNK3 (P53779 whole entry): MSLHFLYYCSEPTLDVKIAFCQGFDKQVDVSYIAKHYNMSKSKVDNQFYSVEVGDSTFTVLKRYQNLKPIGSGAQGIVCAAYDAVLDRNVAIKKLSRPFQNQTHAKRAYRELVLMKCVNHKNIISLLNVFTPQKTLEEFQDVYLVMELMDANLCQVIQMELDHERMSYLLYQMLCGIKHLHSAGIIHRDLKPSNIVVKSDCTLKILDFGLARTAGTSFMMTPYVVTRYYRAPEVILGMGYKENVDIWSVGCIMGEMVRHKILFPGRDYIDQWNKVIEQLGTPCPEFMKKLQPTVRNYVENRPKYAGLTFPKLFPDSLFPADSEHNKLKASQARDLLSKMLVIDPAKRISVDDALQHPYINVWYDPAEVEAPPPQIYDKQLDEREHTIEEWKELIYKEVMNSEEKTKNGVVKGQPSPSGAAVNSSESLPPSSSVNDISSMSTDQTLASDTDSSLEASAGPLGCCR

SMILES	inhibition at 1 µM (JNK3)	inhibition at 1 µM (ALK)	inhibition at 1 µM (CSNK1G2)	inhibition at 1 µM (CDC2L5)	inhibition at 1 µM (HCK)	inhibition at 1 µM [1]	inhibition at 1 µM (CDK11)	inhibition at 1 µM (CDK8)	inhibition at 1 µM (IKK-beta)	inhibition at 1 µM (MAP3K15)	inhibition at 1 µM (ERBB2)	inhibition at 1 µM (ACVRL1)	inhibition at 1 µM (LOK)
Cn1cc(-c2cnc(N)c3c(-c4ccc5c(c4)CCN5C(=O)Cc4ccccc4)csc23)cn1 [UNC10225012A]	0%	0%	7%	0%	86%	0%	18%	19%	0%	35%	0%	0%	98.9%
O=c1cc(N2CCOCC2)nc2n(Cc3cccc(Cl)c3Cl)c(C3CC3)nn12 [UNC10225469A]	0%	0%	5%	0%	0%	0%	0%	0%	0%	0%	0%	9%	0%
COc1cccc(OC)c1C(=O)Nc1cccc(-c2nn3ccccc3c2-c2ccnc(Nc3cccc(F)c3)n2)c1 [UNC10225310A]	0%	0%	17%	1%	30%	0%	0%	0%	0%	0%	61%	7%	90%
CS(=O)(=O)Cc1ccc(Nc2nccc(-c3c(-c4cccc(NC(=O)C5CCCCC5)c4)nn4ncccc34)n2)cc1 [UNC10225159A]	36%	29%	5%	30%	1%	43%	0%	0%	12%	38%	25%	0%	81%
Cc1ccc(NC(=O)Nc2cccc(C(F)(F)F)c2)cc1 [UNC10225187A]	46%	0%	1%	0%	0%	0%	20%	0%	0%	0%	0%	0%	0%
